Article PMC11742080, “Decavanadate Compound Displays In Vitro and In Vivo Antitumor Effect on Melanoma Models” (Bioinorganic Chemistry and Applications, 2025)

Assays:
[1] = Stability of the stock solution (activity retained); assay type: physicochemical; conditions: 1 mg/mL stock kept at +4°C, experiments repeated after 2 months
Procedure: Four cutaneous melanoma cell lines IGR39, IGR37, SKMEL28, and B16-F10 were treated with increasing concentrations of the decavanadate compound (Figure 3). A stock solution was prepared at a concentration of 1 mg/mL and kept at a temperature of +4°C. The dilutions were made just before the treatment. Figures 3(a) and 3(b) show the dose–response effect of Mg2Na2V10O28·20H2O compound on the viability of different melanoma cell lines, after 24 and 72 h of treatments, respectively.

[2] = tested on: SKMEL28 human melanoma cells; assay: MTT cell viability assay, SKMEL28; assay type: cell-based
Procedure: (§1) The MTT assay was first described as a sensitive, quantitative, and reliable colorimetric assay to measure the viability, proliferation, and activation of cells. Cell viability was assessed at 24 and 72 h of treatment to evaluate cytotoxicity and the effect on cell proliferation of the decavanadate compound, respectively. The concentrations of the decavanadate compound have been determined by weighing the compound in its crystal form and then solubilizing it in distilled water.
(§2) All cell lines were seeded in 96-well plates (Nunc, Roskilde, Denmark) at a density of 10^4 cells per well and were incubated overnight, before treatment with different concentrations of the decavanadate compound. After 24 or 72 h of treatment, fresh media solution containing MTT at 0.5 mg/mL was added to cells and incubated for 3 h at 37°C. The formed formazan crystals were then dissolved in DMSO, and the absorbance was measured at 560 nm using a BioTek EON Microplate Spectrophotometer (Fisher Scientific). Cell viability was expressed as a percentage of the viable cell number of the untreated cells (control [CTR]).
(§3) The concentration of the decavanadate compound required for 50% growth inhibition (IC50 value) was estimated as resulting in a 50% decrease in absorbance, compared to the CTR.

[3] = tested on: B16-F10 allografted C57BL/6 mice; assay: B16-F10 melanoma allograft model in mice; assay type: in vivo
Procedure: The syngeneic transplantation model of melanoma, developed in this study, has been widely used for preclinical testing and offers the advantages of relative ease of use, fast turnaround time, and low cost. A total of 30 male C57BL/6 strain mice were previously adapted to animal facility conditions. The design of the experiment was performed as represented in Figure S2. At the start of the experiment, the backs of the mice were shaved. The mice were divided into four groups: • i. CTR− group: negative CTR group containing 6 mice. This group was injected with a solution of PBS by the subcutaneous route in the dorsal region. • ii. CTR+ group: positive CTR group containing 8 mice. In this group, the mice were subcutaneously injected once with 10^5 B16-F10 cells in the dorsal region at the beginning of the experiment. Four mice were sacrificed after 21 days, and the other 4 mice were sacrificed at the end of the experiment after 31 days. • iii. Cotreatment (CT) group: CT group containing 8 mice. This group was subcutaneously injected with 10^5 B16-F10 cells in the dorsal region and injected simultaneously with 2.5 mg/kg of decavanadate (Mg2Na2V10O28·20H2O), subcutaneously for 21 days of the experiment. All the mice were sacrificed after 21 days. • iv. Post-treatment (PT) group: PT group containing 8 mice. This group was subcutaneously injected with 10^5 B16-F10 cells in the dorsal region. After 21 days, each mouse of this group received a dose of 2.5 mg/kg of decavanadate (Mg2Na2V10O28·20H2O), as a treatment for 10 days. For this group, animals were sacrificed on the 31st day. The experimental design scheme is illustrated in Figure S2.

[4] = tested on: IGR39 human melanoma cells; assay: Wound healing (scratch) cell migration assay; assay type: cell-based; conditions: 24 h treatment
Procedure: Wound healing (or scratch) assay is a method to measure two-dimensional cell migration. An artificial gap is generated on a confluent cell monolayer, and the movement is tracked via microscopy or other imaging. Melanoma cells were seeded in 24-well plates at 15 × 10^4 cells per well and incubated for 24–48 h. After cells reached 90% confluence, wounds were generated using a 10 μL micropipette tip. Media were removed, and the cells were washed with 500 μL PBS and then incubated in a fresh medium containing different concentrations (not showing cytotoxic effect) of the decavanadate compound. After 24 h of treatment, cells were washed with PBS, fixed with cold ethanol, and stained with Giemsa. Images were acquired on an inverted microscope at T0 and after 24 h (T24). The percentage of cell migration was calculated using the following formula: cell migration(%)=[(T0 − T24))/(T0)] × 100 where T0 is the wound area at zero time and T24 is the wound area after 24 h. All the pictures were taken with a DM-IRE microscope (Leica, Rueil-Malmaison, France) coupled with a digital camera (CCD camera CoolSNAP FX, Princeton Instruments, Trenton, NJ).

[5] = tested on: HaCaT normal human keratinocytes; assay: MTT cell viability assay, HaCaT; assay type: cell-based
Procedure: as §1, §2, §3

[6] = tested on: IGR37 human melanoma cells; assay: MTT cell viability assay, IGR37; assay type: cell-based
Procedure: as §1, §2, §3

[7] = tested on: IGR39 human melanoma cells; assay: MTT cell viability assay, IGR39; assay type: cell-based
Procedure: as §1, §2, §3

[8] = tested on: IGR39 human melanoma cells; assay: Cell adhesion assay (collagen, fibronectin, poly-L-lysine); assay type: cell-based
Procedure: Adhesion assays were performed as previously described by Morjen et al.. Briefly, flat-bottom 96-well microtiter plates were coated for 2 h at 37°C with fibronectin or collagen at 10 μg/mL, as extracellular matrix (ECM) proteins, or poly-L-lysine at 50 μg/mL, as a nonspecific attachment substrate. Plates were then washed with PBS and blocked by BSA. IGR39 cells were harvested and resuspended in DMEM, in the presence or absence (CTR) of the tested molecule. After incubation for 30 min at room temperature, cells were added to coated wells in a volume of 50 μL (50,000 cells) and allowed to adhere to the substrate for 1 h at 37°C. Unattached cells were removed by gently washing three times with an adhesion buffer. Residual attached cells were fixed by 1% glutaraldehyde, stained by 0.1% crystal violet, and lysed with 1% SDS. The absorbance was then measured at 600 nm by a microplate reader.

Substance: dimagnesium disodium decavanadate icosahydrate [Mg2Na2V10O28·20H2O]
- Stability of stock solution [1]: the compound is stable
- IC50 ([2]; SKMEL28, 24 h treatment): 10.8 µM
- IC50 ([2]; SKMEL28, 72 h treatment): 4.1 µM
- Inhibition of tumor development ([3]; 2.5 mg/kg (50 μg), versus nontreated allografted mice): 70%
- Behavior of allografted mice ([3]; cotreated, 2.5 mg/kg, compared to CTR− group): no change in the behavior
- Tumor appearance at day 21 ([3]; cotreatment (CT) group, 2.5 mg/kg s.c. for 21 days): no skin changes
- Skin histology, cotreated mice ([3]; cotreatment (CT) group, 2.5 mg/kg, day 21): disappearance of melanoma
- Average size of the tumor ([3]; post-treatment (PT) group, 2.5 mg/kg for 10 days from day 21, day 31): 8.2 mm
- Skin histology, post-treated mice ([3]; post-treatment (PT) group, 2.5 mg/kg, day 31): appearance of dermal melanoma associated with invasive nests of atypical discohesive melanocytes and dusty pigmentation
- IC50 [4]: 2.23 µM
- IC50, IGR39 cell migration [4]: 3.16 µg/mL
- Effect on viability of normal keratinocytes ([5]; 24 h treatment): little effect
- IC50 ([5]; 24 h treatment, MTT): > 70.8 µM
- IC50 ([5]; 72 h treatment, MTT): 8.9 µM
- IC50, cell viability ([5]; 72 h treatment, MTT): 12.7 µg/mL
- IC50 ([6]; IGR37, 24 h treatment): 12.7 µM
- IC50 ([6]; IGR37, 72 h treatment): 1.4 µM
- IC50, cell viability ([6]; IGR37, 72 h treatment): 2 µg/mL
- IC50 ([7]; IGR39, 24 h treatment): 18 µM
- IC50 ([7]; IGR39, 72 h treatment): 5.2 µM
- Inhibition of adhesion of IGR39 cells on fibronectin ([8]; 5 μg/mL): 47%
- IC50, IGR39 cell attachment to collagen ([8]; collagen 10 μg/mL coating, 30 min pretreatment, 1 h adhesion): 3.78 µg/mL
- IC50 ([8]; collagen 10 μg/mL coating, 30 min pretreatment, 1 h adhesion, read-out: IC50, IGR39 cell attachment to collagen): 2.67 µM
- Reduction of IGR39 cell attachment to collagen ([8]; highest concentration 5 μg/mL (3.5 μM)): 60%
- Effect on adhesion of IGR39 cells to poly-L-lysine ([8]; up to 5 μg/mL, nonspecific substrate): no effect
